The record followed here is patent publication US11730720B2, “ALK5 inhibitors” (THERAVANCE BIOPHARMA R&D IP, LLC, priority 2018, dated 2023).

The target in test [1] is T1, recombinant human ALK5 (TGF-βR1) protein (Homo sapiens, UniProt P36897).
T1 construct: purchased Life Technologies PR9075A
T1 sequence (P36897 34-503): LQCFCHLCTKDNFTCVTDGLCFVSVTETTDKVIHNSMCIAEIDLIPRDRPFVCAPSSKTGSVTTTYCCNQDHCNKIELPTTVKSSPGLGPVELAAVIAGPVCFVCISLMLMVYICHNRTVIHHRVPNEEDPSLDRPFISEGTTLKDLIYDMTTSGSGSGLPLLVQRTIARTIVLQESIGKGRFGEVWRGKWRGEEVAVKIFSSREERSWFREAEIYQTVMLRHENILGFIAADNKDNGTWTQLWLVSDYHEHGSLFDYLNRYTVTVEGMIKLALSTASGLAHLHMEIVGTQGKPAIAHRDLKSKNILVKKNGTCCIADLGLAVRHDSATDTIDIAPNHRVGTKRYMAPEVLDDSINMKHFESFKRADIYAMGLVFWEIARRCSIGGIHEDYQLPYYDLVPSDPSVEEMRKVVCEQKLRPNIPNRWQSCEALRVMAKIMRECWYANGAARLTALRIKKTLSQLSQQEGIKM
As to the kind of experiment: Biochemical ALK5 (TGF-βR1) assay to measure pKi (LANCE Ultra ULight kinase assay). The note with it: apparent pKi, converted from pIC50 using the Cheng-Prusoff equation. In short, it runs like this:
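TR-FRET kinase format: compound dose range 10 μM–25 pM equilibrated 60 min with human ALK5 and ULight-labelled topoisomerase 2α peptide in HEPES/MgCl2 buffer pH 7.5 with DTT. Reaction started with ATP (125 μM stock, 5× final), 60 min at 37° C, stopped with EDTA/Eu-anti-phospho antibody; pKi derived from pIC50 via Cheng-Prusoff.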
(In TR-FRET formats the signal depends on donor and acceptor labels being close together.)

The subject of test [2] is TGF-β-stimulated SMAD3 phosphorylation in BEAS-2B cells. In words: Cellular ALK5 potency assay, inhibition of TGF-β stimulated pSMAD3 formation in BEAS-2B cells. The class given is cell-based. The note with it: Homo sapiens, inhibition of TGF-β (10 ng/mL) stimulated pSMAD3 formation, 1 hour compound incubation, read-out: BEAS2B pIC50 (converted). In short, it runs like this: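 Phospho-SMAD3 was quantified by AlphaLISA in lysates of human lung epithelial BEAS-2B cells. Compound was added 1 h (37 °C, HEPES/BSA-supplemented HBSS) before a 30 min challenge with 10 ng/mL TGF-β. Values are pIC50 relative to stimulated cells without compound.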

Molecules are shown by their SMILES.

Consider `Fc1cc(F)c(-c2n[nH]cc2-c2ccc3ncc(-c4nnn5c4NCC5)cc3n2)cc1Cl` [Compound 6-58, 2-[3-(5-chloro-2,4-difluoro-phenyl)-1H-pyrazol-4-yl]-7-(5,6-dihydro-4H-imidazo[1,2-c]triazol-3-yl)-1,5-naphthyridine], for which, in test [1], the Ki is 0.0398 to 0.316 nM. In addition, in test [2], the IC50 was 25.1 to 158 nM.
As for `O=C(OCc1ccccc1)N1CCC2(CCN(c3cnc4ccc(-c5c[nH]nc5-c5cc(Cl)ccc5F)nc4c3)C2)C1` (stereo not drawn) [Compound 1-35, benzyl 7-[6-[3-(5-chloro-2-fluoro-phenyl)-1H-pyrazol-4-yl]-1,5-naphthyridin-3-yl]-2,7-diazaspiro[4.4]nonane-2-carboxylate], the Ki in test [1] is 3.98 to 31.6 nM. Also, the IC50 in test [2] was 200 to 1260 nM.
Take `CNCCn1cc(-c2cnc3ccc(-c4c[nH]nc4-c4cccc(COC)c4)nc3c2)nn1` [Compound 14-15, 2-(4-(6-(3-(3-(methoxymethyl)phenyl)-1H-pyrazol-4-yl)-1,5-naphthyridin-3-yl)-1H-1,2,3-triazol-1-yl)-N-methylethan-1-amine]: the Ki in test [1] is 0.398 to 3.16 nM. Moreover, the IC50 in test [2] was 25.1 to 158 nM.
In the same order, the values of `CC(C)N1CCN(CCNc2cnc3ccc(-c4nc[nH]c4-c4cc(Cl)ccc4F)nc3c2)CC1` [Compound 2-2, 6-[5-(5-chloro-2-fluoro-phenyl)-1H-imidazol-4-yl]-N-[2-(4-isopropylpiperazin-1-yl)ethyl]-1,5-naphthyridin-3-amine] are 0.0398 to 0.316 nM and 25.1 to 158 nM.
Regarding `CNCCn1cc(-c2cnc3ccc(-c4c(-c5cc(Cl)ccc5F)nnn4Cc4cccnc4)cc3c2)cn1` [Compound 20-1, 2-(4-(6-(4-(5-chloro-2-fluorophenyl)-1-(pyridin-3-ylmethyl)-1H-1,2,3-triazol-5-yl)quinolin-3-yl)-1H-pyrazol-1-yl)-N-methylethan-1-amine], the Ki in test [1] is 0.0398 to 0.316 nM. Further, in test [2], the IC50 is 25.1 to 158 nM.
On to `CC(C)N1CCN(CCNc2cnc3ccc(-c4nc[nH]c4-c4cc(Cl)c(F)cc4F)cc3c2)CC1` [Compound 22-4, 6-(5-(5-chloro-2,4-difluorophenyl)-1H-imidazol-4-yl)-N-(2-(4-isopropylpiperazin-1-yl)ethyl)quinolin-3-amine], for which, in test [1], the Ki is 0.0398 to 0.316 nM. Besides, the IC50 in test [2] is 25.1 to 158 nM.
In the case of `Fc1cc(F)c(-c2n[nH]cc2-c2ccc3ncc(NCCN4CCNCC4)cc3n2)cc1Cl` [Compound 6-9, 6-[3-(5-chloro-2,4-difluoro-phenyl)-1H-pyrazol-4-yl]-N-(2-piperazin-1-ylethyl)-1,5-naphthyridin-3-amine], the Ki in test [1] is 0.0398 to 0.316 nM. Further, the IC50 in test [2] is 25.1 to 158 nM.
Consider `Fc1ccc(Cl)cc1-c1n[nH]cc1-c1ccc2ncc(-c3nnn4c3NCC4)cc2n1` [Compound 1-123, 2-[3-(5-chloro-2-fluoro-phenyl)-1H-pyrazol-4-yl]-7-(5,6-dihydro-4H-imidazo[1,2-c]triazol-3-yl)-1,5-naphthyridine], for which the Ki in test [1] is 0.0398 to 0.316 nM. Further, the IC50 in test [2] is 25.1 to 158 nM.
In the case of `CC(C)N1CCN(CCNc2cnc3ccc(-c4c[nH]nc4-c4cc(Cl)ccc4F)nc3c2)CC1` [Compound 1-2], in test [1], the Ki was 0.0398 to 0.316 nM. In test [2], the IC50 is at most 20 nM.
On to `CCN1CCC(N(C)c2cnc3ccc(-c4c[nH]nc4-c4cc(Cl)c(F)cc4F)nc3c2)CC1` [Compound 6-15, 6-[3-(5-chloro-2,4-difluoro-phenyl)-1H-pyrazol-4-yl]-N-(1-ethyl-4-piperidyl)-N-methyl-1,5-naphthyridin-3-amine], for which the Ki in test [1] is 0.398 to 3.16 nM. The IC50 in test [2] is 25.1 to 158 nM.
In the case of `CC(C)N1CCN(CCNc2cnc3ccc(-c4nc[nH]c4-c4cc(Cl)c(F)cc4F)nc3c2)CC1` [Compound 7-2, 6-[5-(5-chloro-2,4-difluoro-phenyl)-1H-imidazol-4-yl]-N-[2-(4-isopropylpiperazin-1-yl)ethyl]-1,5-naphthyridin-3-amine], in test [1], the Ki is 0.0398 to 0.316 nM. Besides, in test [2], the IC50 was 25.1 to 158 nM.
Consider `COC(=O)[C@H]1CN(c2cnc3ccc(-c4c[nH]nc4-c4cc(Cl)ccc4F)nc3c2)CCN1CCN` [Compound 1-134, methyl (2R)-1-(2-aminoethyl)-4-[6-[3-(5-chloro-2-fluoro-phenyl)-1H-pyrazol-4-yl]-1,5-naphthyridin-3-yl]piperazine-2-carboxylate], for which the Ki in test [1] is 0.398 to 3.16 nM. For the same molecule, the IC50 in test [2] was 25.1 to 158 nM.
As to `COCC(C)(CNc1cnc2ccc(-c3c[nH]nc3-c3cc(Cl)ccc3F)nc2c1)N1CCN(C(C)C)CC1` (stereo not drawn) [Compound 1-6, 6-[3-(5-chloro-2-fluoro-phenyl)-1H-pyrazol-4-yl]-N-[2-(4-isopropylpiperazin-1-yl)-3-methoxy-2-methyl-propyl]-1,5-naphthyridin-3-amine], the Ki in test [1] is 0.398 to 3.16 nM. Moreover, the IC50 in test [2] was 200 to 1260 nM.
With `CN(C)C1CCN(c2cnc3ccc(-c4c[nH]nc4-c4ccc(F)c(F)c4)nc3c2)CC1` [Compound 8-7, 1-[6-[3-(3,4-difluorophenyl)-1H-pyrazol-4-yl]-1,5-naphthyridin-3-yl]-N,N-dimethyl-piperidin-4-amine], in test [1], the Ki is 0.398 to 3.16 nM. Besides, the IC50 in test [2] is 25.1 to 158 nM.
Take `CN(CC1CNC1)c1cnc2ccc(-c3nc[nH]c3-c3cc(Cl)c(F)cc3F)nc2c1` [Compound 7-6, N-(azetidin-3-ylmethyl)-6-[5-(5-chloro-2,4-difluoro-phenyl)-1H-imidazol-4-yl]-N-methyl-1,5-naphthyridin-3-amine]: the Ki in test [1] is 0.0398 to 0.316 nM. Further, in test [2], the IC50 is 25.1 to 158 nM.
In the case of `Fc1ccc(Cl)cc1-c1nc2ccccn2c1-c1ccc2ncc(-c3cnc4n3CCNC4)cc2n1` [Compound 3-8, 2-[2-(5-chloro-2-fluoro-phenyl)imidazo[1,2-a]pyridin-3-yl]-7-(5,6,7,8-tetrahydroimidazo[1,2-a]pyrazin-3-yl)-1,5-naphthyridine], the Ki in test [1] was 0.0398 to 0.316 nM. Also, the IC50 in test [2] is 25.1 to 158 nM.
As for `CN1CCN(CCNc2cnc3ccc(-c4c[nH]nc4-c4cc(Cl)ccc4F)nc3c2)CC1` [Compound 1-12, 6-[3-(5-chloro-2-fluoro-phenyl)-1H-pyrazol-4-yl]-N-[2-(4-methylpiperazin-1-yl)ethyl]-1,5-naphthyridin-3-amine], the Ki in test [1] is 0.0398 to 0.316 nM. In test [2], the IC50 is at most 20 nM.
On to `CNC1CCN(c2cnc3ccc(-c4c[nH]nc4-c4cc(Cl)ccc4F)nc3c2)CC1` [Compound 1-60, 1-[6-[3-(5-chloro-2-fluoro-phenyl)-1H-pyrazol-4-yl]-1,5-naphthyridin-3-yl]-N-methyl-piperidin-4-amine], for which the Ki in test [1] is 0.0398 to 0.316 nM. In addition, in test [2], the IC50 is 25.1 to 158 nM.
For `COC(=O)[C@@H]1CN(c2cnc3ccc(-c4c[nH]nc4-c4cc(Cl)c(F)cc4F)nc3c2)CCN1` [Compound 6-28, methyl (2S)-4-[6-[3-(5-chloro-2,4-difluoro-phenyl)-1H-pyrazol-4-yl]-1,5-naphthyridin-3-yl]piperazine-2-carboxylate] the same measures were 0.398 to 3.16 nM and 25.1 to 158 nM.
In the case of `Fc1cc(F)c(-c2n[nH]cc2-c2ccc3ncc(-c4cn(Cc5cnc6c(c5)CNCC6)nn4)cc3n2)cc1Cl` [Compound 6-63, 2-[3-(5-chloro-2,4-difluoro-phenyl)-1H-pyrazol-4-yl]-7-[1-(5,6,7,8-tetrahydro-1,6-naphthyridin-3-ylmethyl)triazol-4-yl]-1,5-naphthyridine], in test [1], the Ki is 0.0398 to 0.316 nM. The IC50 in test [2] was 25.1 to 158 nM.
For the molecule `CC(C)N1CCN(CCNc2cnc3ccc(-c4c(-c5cc(Cl)ccc5F)nc5ccccn45)nc3c2)CC1` [Compound 3-1, 6-(2-(5-chloro-2-fluorophenyl)imidazo[1,2-a]pyridin-3-yl)-N-(2-(4-isopropylpiperazin-1-yl)ethyl)-1,5-naphthyridin-3-amine], the Ki in test [1] was 0.0398 to 0.316 nM. For the same molecule, in test [2], the IC50 was 25.1 to 158 nM.
In the same order, the values of `Fc1cc(F)c(-c2[nH]cnc2-c2ccc3ncc(NCCN4CCNCC4)cc3c2)cc1Cl` [Compound 22-5, 6-[5-(5-chloro-2,4-difluoro-phenyl)-1H-imidazol-4-yl]-N-(2-piperazin-1-ylethyl)quinolin-3-amine] are 0.0398 to 0.316 nM and 25.1 to 158 nM.
Consider `CN1CC=C(c2nc3n(n2)CCN(c2cnc4ccc(-c5nc[nH]c5-c5cc(Cl)ccc5F)nc4c2)C3)C1` [Compound 2-15, 2-(5-(5-chloro-2-fluorophenyl)-1H-imidazol-4-yl)-7-(2-(1-methyl-2,5-dihydro-1H-pyrrol-3-yl)-5,6-dihydro-[1,2,4]triazolo[1,5-a]pyrazin-7(8H)-yl)-1,5-naphthyridine], for which the Ki in test [1] was at most 0.0316 nM. Also, in test [2], the IC50 is 25.1 to 158 nM.
As to `CNCCn1cc(-c2cnc3ccc(-c4nc[nH]c4-c4cccc(COC)c4)nc3c2)cn1` [Compound 15-3, 2-(4-(6-(5-(3-(methoxymethyl)phenyl)-1H-imidazol-4-yl)-1,5-naphthyridin-3-yl)-1H-pyrazol-1-yl)-N-methylethan-1-amine], the Ki in test [1] was 0.0398 to 0.316 nM. The IC50 in test [2] is 25.1 to 158 nM.
